Test results reported in US11998602B2, “Methods for promoting myelination and for treating demyelinating diseases” (The Scripps Research Institute, priority 2018, dated 2024).

Columns and labels:
[1] = test system: Rat primary optic nerve OPCs; experiment: In vitro OPC differentiation assay, MBP expression by Western blot; assay type: cell-based; settings: for Effect of supplementation on drug-induced OPC differentiation: added to drug-induced differentiation conditions; for Observed maximal in vitro efficacy of OPC differentiation compared to T3: drug alone
Method: Rat primary optic nerve OPCs were isolated by panning (>99% A2B5^+) and cultured in poly-D-lysine (10 μg/ml)-coated TC dishes in OPC culture media (Neurobasal Media, Invitrogen) supplemented with B27-without vitamin A (Invitrogen), 1× non-essential amino acids, 1× Glutamax, 1× anti-anti, β-mercaptoethanol and PDGF-AA (50 ng/ml; Peprotech) at 37° C. with 5% CO2. The culture medium was replaced every 48 h and cells were collected before the confluency reached 60% to maintain a naive state. For differentiation, OPCs were plated at 1 million cells in one 10 cm petri-dish filled with differentiation media, which is identical to the culture media, but with PDGF-AA at 2 ng/ml. T3 and DMSO were used as the positive control and negative control, respectively. Five replicates of cells were collected at different times (0, 3, and 6 days) for metabolomics studies.
Western blot analysis. OPCs were plated in basal differentiation medium at 1.7×10^5 cells/well and treated for 6 days with benztropine (0.5 μM), miconazole (2 μM) with and without the tested endogenous metabolites, T3 (1 μM) or DMSO. After washing with PBS, cells were collected in ice cold RIPA buffer containing protease and phosphatase inhibitors. Following incubation on ice for >20 min and sonication, lysed cells were centrifuged (16,000 g, 15 min at 4° C.). Total protein was quantified using a BCA analysis and 25 μg of protein from each sample was denatured by boiling with Bolt LDS Sample Buffer (4×) and Sample Reducing Agent (10×). Proteins were electrophoresed using Bolt 4-12% Bis-Tris gels (Life Technologies) and transferred to a PVDF membrane (Bio-Rad). The membrane was blocked with Odyssey PBS Blocking Buffer (LI-COR) and incubated overnight at 4° C. with anti-MBP (mouse, 1:2000) and anti-actin (mouse, 1:5000). Blots were incubated with […] secondary donkey anti-mouse antibody (LI-COR, 1:7500) and imaged using Odyssey CLx and Image Studio (LI-COR).

[2] = test system: Rat primary optic nerve OPCs; experiment: High content imaging assay of OPC differentiation (MBP, A2B5, DAPI cell counts); assay type: cell-based
Method: Rat primary optic nerve OPCs were isolated by panning (>99% A2B5^+) and cultured in poly-D-lysine (10 μg/ml)-coated TC dishes in OPC culture media (Neurobasal Media, Invitrogen) supplemented with B27-without vitamin A (Invitrogen), 1× non-essential amino acids, 1× Glutamax, 1× anti-anti, β-mercaptoethanol and PDGF-AA (50 ng/ml; Peprotech) at 37° C. with 5% CO2. The culture medium was replaced every 48 h and cells were collected before the confluency reached 60% to maintain a naive state. For differentiation, OPCs were plated at 1 million cells in one 10 cm petri-dish filled with differentiation media, which is identical to the culture media, but with PDGF-AA at 2 ng/ml. T3 and DMSO were used as the positive control and negative control, respectively. Five replicates of cells were collected at different times (0, 3, and 6 days) for metabolomics studies. High content imaging. For dose-response co-treatment experiments, black, clear-bottom 384-well plates (Greiner) were coated with poly-D-lysine (10 μg ml^−1 in PBS). miconazole and benztropine were added at 8 doses in differentiation media; 3-fold dilutions down from 10 μM. taurine was then added at 8 concentrations; 3-fold dilutions down from 20 mM. This 384-well format was also utilized for experiments combining benztropine (0.5 μM), miconazole (2 μM) or T3 (1 μM) with propargylglycine (0.1, 3, 10, 30 μM), reduced glutathione (1, 10, 30, 100 μM) or ascorbic acid ([…]). OPCs were then seeded at a density of 1,000 cells per well, and the plates were incubated at 37° C. with 5% CO2 for 6 days. For time course experiments, cells were seeded at a density of 5,000 cells per well in poly-D-lysine-coated 96-well plates. Cells were treated with DMSO (0.1%), benztropine (0.5 μM), miconazole (2 μM) or T3 (1 μM) on day 0, and taurine (20 mM) was added in combination at 0, 1 or 3 days post-drug treatment. The plates were incubated at 37° C. with 5% CO2 for 6 days. On day 6, cells were then fixed for 20 min with 4% formaldehyde solution and stained with mouse anti-Myelin Basic Protein (MBP) antibody (MAB382, Millipore) or anti-A2B5 antibody (MAB312, Millipore) in 3% BSA, 0.3% Triton X-100 with overnight incubation at 4° C. The cells were washed and incubated with secondary antibody (goat anti-mouse Alexa Fluor488) and DAPI (Invitrogen) for 1 h at room temperature. The cells were washed and plates were sealed and imaged using an Opera confocal imaging reader (Perkin Elmer) or a Cellomics Cell Insight imaging reader (Thermo). An air ×10 lens was used to capture 9 images per well at both wavelengths (488 and 365 nm), with each image representing a different unique locations field in a single well. For image analysis, DAPI-stained nuclei and MBP-positive or A2B5-positive cell bodies were detected using an algorithm that selects for positive cell bodies and nuclei within a range of fluorescent emission values and sizes as determined by fitting parameters to positive (T3, 1 μM) and negative controls (DMSO, 0.1%). The numbers of DAPI-positive objects were enumerated in experiments where cell counts were required. Numerical results from the analyzed images were later exported for analysis using Excel (Microsoft) and/or Genedata software.

[3] = test system: primary mouse cortical neurons co-cultured with OPCs; experiment: In vitro OL maturation assay, MBP-colocalization with co-cultured axons; assay type: cell-based, rat; settings: 0.5 μM benztropine, 1.0 μM miconazole or 2 mM taurine alone, 14 days
Method: In vitro OL maturation assay. Cortical and hippocampal tissue was dissected from C57BL/6 mice at embryonic day 14 and dissociated in 0.5% Trypsin with 100 U/mL DNase I diluted in HBSS (+/+) for 10 min at 37° C. Reaction was stopped by supplementing to a final concentration of 10% v/v FBS, 100 μg/mL Soybean Trypsin Inhibitor and 10 U/mL DNase I. Cells were resuspended in plating media consisting of equal volumes of FCS, HBSS (+/+), High-Glucose DMEM with L-glutamine, and F-12 with L-glutamine, then plated onto acid pre-washed German glass coverslips coated with 50 μg/mL Poly-D-Lysine and 20 μg/mL Laminin at a density of 50,000 cells/cm^2. Cells were allowed to attach for 2 hrs and then coverslips were rinsed with PBS before being transferred to a 24-well plate containing 0.5 mL growth media consisting of: Neurobasal medium, B27 supplement (Gibco), 0.5× Glutamax (Thermo), 5 μg/mL gentamycin and 5 μM glutamic acid. Half of the cell media was replaced after 3 DIV with supplemental growth media not containing glutamic acid^47. After 5 DIV, rat-derived cortical OPCs were added to the neuronal culture at a density of 5,000 cells/cm^2. Co-culture media used to resuspend and plate OPCs consisting of a 1:3 mixture of neuronal growth supplement (as above) and oligodendrocyte differentiation media, containing DMEM/F-12 (with L-glutamine), insulin-free N2 supplement, 1× Glutamax, 1×MEM non-essential amino acids, 1× β-mercaptoethanol, 2 ng/mL PDGF and 5 μg/mL gentamycin. All drugs and taurine co-treatment were added once to culture upon plating of OPCs at the following concentrations: 0.5 μM benztropine, 1.0 μM miconazole, each with or without 2 mM taurine. Cultures were maintained by replacing half of the media every three days, maintaining an equivalent concentration of taurine throughout in appropriate wells. […] Co-localization was quantified within regions of interest delineated as the periphery of individual oligodendrocytes. The co-localization index (adapted from a previously described method^48) was calculated as total proportion of co-localized 3D surface area between Tuj1 (neuron) and oligodendrocyte (MBP) over total Tuj1 (neuronal process) area enclosed within each oligodendrocyte process tree as the selected region of interest (ROI, see FIG. 3B″). Mean colocalization values for each condition were normalized to the DMSO condition mean analyzed statistically using Prism software (GraphPad, v7) for two-way ANOVA comparisons (Drug Treatment×Taurine Supplement) with Tukey post-tests for statistical significance. […]

OPCs = experiment: Mitochondrial respiration assay (oxygen consumption rate, XFe96 Seahorse); assay type: cell-based, rat; settings: miconazole treatment alone
Method: Mitochondrial respiration assay. Cellular oxygen consumption rate (OCR) was measured using an XFe96 extracellular flux analyzer (Seahorse Biosciences). OPCs were seeded at 40,000 cells/well in PLP-coated XFe96 plates and cultured for 6 days with taurine (2 and 20 mM) alone, or together with miconazole and benztropine. Cells were then incubated in assay medium (DMEM with 20 mM glucose, 5 mM pyruvate and 5 mM sodium bicarbonate, pH˜7.4) for at least 30 min prior to the assay. Media to deliver a final assay well concentration corresponding to of 1 μM oligomycin, 2 μM carbonyl cyanide 4-(trifluoromethoxy) phenylhydrazone (FCCP) and 2 μM rotenone+2 μM antimycin A were pre-loaded into the compound delivery ports of the system. The assay starts with the recording of the basal OCR, followed by recording of the OCR in response to different compounds that constitute the Mitochondria Stress Test (Seahorse Biosciences, Agilent). Once the basal OCR was measured, the compounds were added sequentially and the effects on OCR measured 3 times every 5 min. Oligomycin blocks ATP synthase; FCCP dissipates the inner membrane potential enabling maximum electron flux through the electron transport chain (ETC); rotenone+antimycin A inhibit complexes I and III, respectively, thereby blocking the entry of electrons in the ETC and shutting down mitochondrial activity.

Question: `CN(CC(=O)O)C(=N)NP(=O)(O)O` [PCr, phosphocreatine] was tested. Which “Effect of supplementation on drug-induced OPC differentiation” value [1] did it give?
Answer: The value was “some additive effects”.

Question: What does the source list for `C#CCC(N)C(=O)O` (stereo not shown) [PPG, propargylglycine]?
Answer: Impact on differentiation efficiency under basal vehicle treated conditions ([2]; PPG): virtually no impact; Observed efficacy of drug-induced differentiation ([2]; PPG 10 μM added at day 0 or day 3, all drug-induced conditions): significantly enhance; Overall cell number with T3 treatment ([2]; PPG 10 μM, T3 1 μM): enhance; Impact on overall survival in OPC cultures ([2]; PPG, DMSO, benztropine (0.5 μM) or miconazole (2 μM)): not found to impact

Question: What does the source list for `CN1[C@@H]2CC[C@H]1C[C@@H](OC(c1ccccc1)c1ccccc1)C2` [benztropine, reference compound]?
Answer: Observed maximal in vitro efficacy of OPC differentiation compared to T3 [1]: suboptimal; MBP-colocalization with axons, treatment alone vs. DMSO (Tukey post hoc) [3]: significant

Question: Which “Effect of supplementation on drug-induced OPC differentiation” value [1] does the source give for `CN(CC(=O)O)C(=N)N` [creatine] here?
Answer: Its value is “some additive effects”.

Question: What does the source list for `Clc1ccc(COC(Cn2ccnc2)c2ccc(Cl)cc2Cl)c(Cl)c1` (stereo not shown) [miconazole, reference compound]?
Answer: Impact on OCR values compared to DMSO or benztropine treatment (OPCs): negative impact; Observed maximal in vitro efficacy of OPC differentiation compared to T3 [1]: suboptimal; MBP-colocalization with axons, treatment alone vs. DMSO (Tukey post hoc) [3]: no significant difference

Question: Which “Differentiation efficiency (MBP-positive OLs) under basal conditions” value ([2]; 10 μM GSH, DMSO, day 6) does the source give for reduced glutathione here?
Answer: Its value is “no significant effect”.

Question: What about the “Observed total nuclei count in T3-induced differentiation” value ([2]; 10 μM GSH, T3 (1 μM), day 6) of the same compound?
Answer: The value was “significantly enhance”.

Question: What about the “Overall efficiency of T3-induced differentiation” value ([2]; 10 μM GSH, T3 (1 μM), day 6) of the same compound?
Answer: The value was “significantly enhance”.

Question: What about the “Impact on total cell number in benztropine- or miconazole-induced differentiation” value ([2]; reduced glutathione) of the same compound?
Answer: Its value is “not found to be significant”.

Question: And the “Overall efficiency of benztropine- or miconazole-induced differentiation” value ([2]; reduced glutathione, lesser extent than following taurine addition)?
Answer: The value was “enhance”.
